Measured values published in patent US20220009920A1 (GB005, Inc., priority 2020, published 2022).

How the values were obtained:
Assay in all cases: Large panel kinase profiling
Assay type in all cases: biochemical
Conditions in all cases: 1 μM test article, 1 mM ATP
ALK = ALK (Homo sapiens, UniProt Q9UM73)
In short: (§1)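 Continuous-read kinase assay: chelation-sensor peptide, 1 mM ATP, compound at 1 μM. Plates kept at 30° C.; fluorescence sampled at 1-min intervals (360/485 nm).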

MAPK14/P38A = target: T1, MAPK14/P38A (Homo sapiens, UniProt Q16539)
T1 construct: AssayQuant Technologies, Inc. (service provider)
In short: as §1

FLT4 = target: T2, FLT4 (Homo sapiens, UniProt P35916)
T2 construct: AssayQuant Technologies, Inc. (service provider)
In short: as §1

EPHA3 = target: T3, EPHA3 (Homo sapiens, UniProt P29320)
T3 sequence (P29320 21-983): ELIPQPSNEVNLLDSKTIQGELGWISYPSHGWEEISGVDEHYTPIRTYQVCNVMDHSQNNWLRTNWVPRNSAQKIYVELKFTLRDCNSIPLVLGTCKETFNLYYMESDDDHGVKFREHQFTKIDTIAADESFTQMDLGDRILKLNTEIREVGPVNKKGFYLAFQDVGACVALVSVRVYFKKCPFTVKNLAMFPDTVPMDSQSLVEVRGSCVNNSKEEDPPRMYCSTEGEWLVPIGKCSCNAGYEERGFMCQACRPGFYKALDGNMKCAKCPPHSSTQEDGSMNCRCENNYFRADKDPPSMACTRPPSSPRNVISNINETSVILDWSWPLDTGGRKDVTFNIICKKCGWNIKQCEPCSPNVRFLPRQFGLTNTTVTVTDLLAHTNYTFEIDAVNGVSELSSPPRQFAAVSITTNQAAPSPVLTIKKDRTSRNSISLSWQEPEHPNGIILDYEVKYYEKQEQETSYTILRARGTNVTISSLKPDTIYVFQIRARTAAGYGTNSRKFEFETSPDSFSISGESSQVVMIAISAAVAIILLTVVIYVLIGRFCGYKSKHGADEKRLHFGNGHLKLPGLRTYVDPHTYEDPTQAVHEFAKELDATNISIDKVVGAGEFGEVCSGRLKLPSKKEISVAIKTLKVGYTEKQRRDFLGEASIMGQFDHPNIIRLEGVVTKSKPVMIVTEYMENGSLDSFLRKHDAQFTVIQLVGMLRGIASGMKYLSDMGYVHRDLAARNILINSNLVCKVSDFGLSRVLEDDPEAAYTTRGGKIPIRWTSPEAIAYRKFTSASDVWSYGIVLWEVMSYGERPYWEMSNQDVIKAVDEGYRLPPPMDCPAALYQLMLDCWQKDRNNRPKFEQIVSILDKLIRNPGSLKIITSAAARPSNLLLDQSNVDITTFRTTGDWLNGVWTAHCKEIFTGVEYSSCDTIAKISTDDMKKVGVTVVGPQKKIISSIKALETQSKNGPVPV
In short: as §1

DYRK1B = target: T4, DYRK1B (Homo sapiens, UniProt Q9Y463)
T4 construct: AssayQuant Technologies, Inc. (service laboratory)
In short: as §1

MAP4K4/HGK = target: T5, MAP4K4/HGK (Homo sapiens, UniProt O95819)
T5 construct: AssayQuant Technologies, Inc. (service provider)
In short: as §1

TBK1 = target: T6, TBK1 (Homo sapiens, UniProt Q9UHD2)
T6 construct: AssayQuant Technologies, Inc. (contract laboratory that ran the panel)
T6 sequence (Q9UHD2 1-729): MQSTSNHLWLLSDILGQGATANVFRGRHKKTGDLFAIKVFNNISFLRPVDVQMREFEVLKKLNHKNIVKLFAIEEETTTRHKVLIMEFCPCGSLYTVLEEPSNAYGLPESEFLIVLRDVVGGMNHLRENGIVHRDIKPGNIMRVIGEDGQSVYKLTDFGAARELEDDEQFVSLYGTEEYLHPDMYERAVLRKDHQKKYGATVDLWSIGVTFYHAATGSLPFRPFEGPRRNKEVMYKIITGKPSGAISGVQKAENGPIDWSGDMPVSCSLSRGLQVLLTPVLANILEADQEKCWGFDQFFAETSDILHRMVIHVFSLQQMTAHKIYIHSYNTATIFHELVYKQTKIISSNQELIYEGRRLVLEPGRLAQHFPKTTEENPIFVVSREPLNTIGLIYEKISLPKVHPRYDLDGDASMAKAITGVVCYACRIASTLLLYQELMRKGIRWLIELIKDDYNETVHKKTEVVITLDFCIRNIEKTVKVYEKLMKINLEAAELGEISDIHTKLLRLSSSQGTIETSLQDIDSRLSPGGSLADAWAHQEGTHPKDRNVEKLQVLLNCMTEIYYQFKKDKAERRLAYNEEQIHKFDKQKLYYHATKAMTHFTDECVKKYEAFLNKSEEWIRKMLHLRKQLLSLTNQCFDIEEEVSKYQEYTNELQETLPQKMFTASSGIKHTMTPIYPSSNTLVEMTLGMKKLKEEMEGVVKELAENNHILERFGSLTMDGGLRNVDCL
In short: as §1

SRMS = target: T7, SRMS (Homo sapiens, UniProt Q9H3Y6)
T7 construct: AssayQuant Technologies, Inc. (contract assay)
In short: as §1

MAPK12/P38G = target: T8, MAPK12/P38G (Homo sapiens, UniProt P53778)
T8 construct: AssayQuant Technologies, Inc. (service provider)
T8 sequence (P53778 1-367): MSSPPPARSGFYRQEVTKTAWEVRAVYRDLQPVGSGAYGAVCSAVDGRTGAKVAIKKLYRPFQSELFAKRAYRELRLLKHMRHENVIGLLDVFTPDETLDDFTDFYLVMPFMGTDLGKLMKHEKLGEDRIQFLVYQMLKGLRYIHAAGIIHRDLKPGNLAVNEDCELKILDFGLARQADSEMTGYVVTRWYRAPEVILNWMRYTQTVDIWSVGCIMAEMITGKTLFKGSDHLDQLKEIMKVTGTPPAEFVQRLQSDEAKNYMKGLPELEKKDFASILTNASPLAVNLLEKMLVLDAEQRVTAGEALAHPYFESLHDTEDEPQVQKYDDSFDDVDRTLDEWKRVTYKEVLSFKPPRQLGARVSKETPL
In short: as §1

T4 sequence (Q9Y463 whole entry, species assumed): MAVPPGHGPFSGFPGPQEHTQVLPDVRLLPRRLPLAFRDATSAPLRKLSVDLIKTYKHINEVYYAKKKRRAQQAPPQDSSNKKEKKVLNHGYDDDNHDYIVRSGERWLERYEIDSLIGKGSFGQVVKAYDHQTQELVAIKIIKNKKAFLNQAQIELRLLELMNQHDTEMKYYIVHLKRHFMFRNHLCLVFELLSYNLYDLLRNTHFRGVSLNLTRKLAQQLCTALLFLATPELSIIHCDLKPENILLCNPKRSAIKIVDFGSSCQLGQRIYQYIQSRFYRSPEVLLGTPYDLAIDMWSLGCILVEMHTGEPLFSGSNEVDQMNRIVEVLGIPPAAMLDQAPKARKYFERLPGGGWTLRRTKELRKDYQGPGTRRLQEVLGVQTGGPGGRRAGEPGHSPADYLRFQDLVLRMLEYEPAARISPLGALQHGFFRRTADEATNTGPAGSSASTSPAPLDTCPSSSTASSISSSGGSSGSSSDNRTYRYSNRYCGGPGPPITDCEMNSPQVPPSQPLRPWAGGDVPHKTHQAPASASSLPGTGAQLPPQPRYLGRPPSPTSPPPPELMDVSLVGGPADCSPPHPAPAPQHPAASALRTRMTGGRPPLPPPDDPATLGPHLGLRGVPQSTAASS
T2 sequence (P35916 25-1363, species assumed): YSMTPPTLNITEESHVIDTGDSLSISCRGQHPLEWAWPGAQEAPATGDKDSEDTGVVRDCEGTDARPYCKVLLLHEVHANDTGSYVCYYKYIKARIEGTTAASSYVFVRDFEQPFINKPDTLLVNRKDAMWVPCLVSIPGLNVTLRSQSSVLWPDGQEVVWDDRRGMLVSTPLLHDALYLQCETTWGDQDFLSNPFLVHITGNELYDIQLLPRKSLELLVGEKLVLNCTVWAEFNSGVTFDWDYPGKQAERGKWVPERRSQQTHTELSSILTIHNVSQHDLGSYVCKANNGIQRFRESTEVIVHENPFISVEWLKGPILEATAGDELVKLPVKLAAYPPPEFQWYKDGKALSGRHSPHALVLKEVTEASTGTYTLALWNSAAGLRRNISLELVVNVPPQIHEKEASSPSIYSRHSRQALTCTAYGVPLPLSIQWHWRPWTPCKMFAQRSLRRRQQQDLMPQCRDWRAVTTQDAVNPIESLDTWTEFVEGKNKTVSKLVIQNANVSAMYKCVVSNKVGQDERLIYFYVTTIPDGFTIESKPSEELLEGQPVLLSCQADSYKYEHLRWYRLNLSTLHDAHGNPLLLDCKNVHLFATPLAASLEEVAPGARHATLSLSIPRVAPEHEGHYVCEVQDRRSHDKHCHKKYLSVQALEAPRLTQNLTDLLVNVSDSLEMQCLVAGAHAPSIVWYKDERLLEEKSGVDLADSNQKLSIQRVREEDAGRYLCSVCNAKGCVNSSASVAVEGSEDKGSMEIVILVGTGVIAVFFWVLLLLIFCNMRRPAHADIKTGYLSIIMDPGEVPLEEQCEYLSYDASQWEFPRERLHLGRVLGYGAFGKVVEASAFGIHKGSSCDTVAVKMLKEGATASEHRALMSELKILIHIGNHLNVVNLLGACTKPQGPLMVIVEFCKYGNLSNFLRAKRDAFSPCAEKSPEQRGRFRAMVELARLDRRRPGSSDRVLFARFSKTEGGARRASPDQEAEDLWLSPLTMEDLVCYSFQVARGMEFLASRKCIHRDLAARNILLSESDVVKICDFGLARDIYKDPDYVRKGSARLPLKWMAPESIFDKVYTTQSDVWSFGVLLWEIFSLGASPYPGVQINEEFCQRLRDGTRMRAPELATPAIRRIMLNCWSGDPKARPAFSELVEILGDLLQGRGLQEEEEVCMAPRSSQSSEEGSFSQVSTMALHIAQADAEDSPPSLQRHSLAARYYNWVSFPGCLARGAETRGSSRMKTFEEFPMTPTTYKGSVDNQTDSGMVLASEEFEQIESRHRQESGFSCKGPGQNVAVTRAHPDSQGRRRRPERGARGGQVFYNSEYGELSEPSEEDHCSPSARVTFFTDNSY
T5 sequence (O95819 whole entry): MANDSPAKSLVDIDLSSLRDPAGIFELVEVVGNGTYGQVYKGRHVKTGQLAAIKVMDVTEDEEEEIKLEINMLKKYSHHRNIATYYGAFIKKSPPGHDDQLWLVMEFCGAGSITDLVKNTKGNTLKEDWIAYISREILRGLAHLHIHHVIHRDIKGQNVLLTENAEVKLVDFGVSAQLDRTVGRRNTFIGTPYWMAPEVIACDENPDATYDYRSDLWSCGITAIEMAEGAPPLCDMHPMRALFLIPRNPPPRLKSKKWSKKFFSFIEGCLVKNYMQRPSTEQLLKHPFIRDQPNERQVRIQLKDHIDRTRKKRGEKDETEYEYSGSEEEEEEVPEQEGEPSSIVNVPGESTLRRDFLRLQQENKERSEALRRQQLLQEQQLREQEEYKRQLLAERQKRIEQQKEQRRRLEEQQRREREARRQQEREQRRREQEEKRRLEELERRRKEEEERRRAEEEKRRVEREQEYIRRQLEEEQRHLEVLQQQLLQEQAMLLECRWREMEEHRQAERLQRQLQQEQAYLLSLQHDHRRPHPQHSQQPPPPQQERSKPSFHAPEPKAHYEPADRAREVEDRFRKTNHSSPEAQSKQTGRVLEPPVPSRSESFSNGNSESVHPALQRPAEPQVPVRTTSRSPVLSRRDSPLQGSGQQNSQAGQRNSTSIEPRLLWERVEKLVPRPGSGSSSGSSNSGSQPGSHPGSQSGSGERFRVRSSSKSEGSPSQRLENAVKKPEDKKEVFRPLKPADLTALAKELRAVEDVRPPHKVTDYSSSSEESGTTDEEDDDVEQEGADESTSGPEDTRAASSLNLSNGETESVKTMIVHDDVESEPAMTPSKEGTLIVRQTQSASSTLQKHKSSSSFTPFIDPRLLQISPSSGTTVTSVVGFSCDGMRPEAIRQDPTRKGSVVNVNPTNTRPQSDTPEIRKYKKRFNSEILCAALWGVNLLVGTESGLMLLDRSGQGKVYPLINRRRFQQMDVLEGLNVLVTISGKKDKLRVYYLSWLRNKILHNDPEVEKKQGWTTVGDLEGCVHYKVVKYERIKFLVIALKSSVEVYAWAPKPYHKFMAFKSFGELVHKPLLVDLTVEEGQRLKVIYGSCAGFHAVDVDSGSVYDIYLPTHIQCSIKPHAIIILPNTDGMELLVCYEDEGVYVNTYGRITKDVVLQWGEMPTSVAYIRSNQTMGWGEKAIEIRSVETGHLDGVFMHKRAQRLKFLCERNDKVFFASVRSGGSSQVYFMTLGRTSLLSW
T1 sequence (Q16539 2-360 limits assumed): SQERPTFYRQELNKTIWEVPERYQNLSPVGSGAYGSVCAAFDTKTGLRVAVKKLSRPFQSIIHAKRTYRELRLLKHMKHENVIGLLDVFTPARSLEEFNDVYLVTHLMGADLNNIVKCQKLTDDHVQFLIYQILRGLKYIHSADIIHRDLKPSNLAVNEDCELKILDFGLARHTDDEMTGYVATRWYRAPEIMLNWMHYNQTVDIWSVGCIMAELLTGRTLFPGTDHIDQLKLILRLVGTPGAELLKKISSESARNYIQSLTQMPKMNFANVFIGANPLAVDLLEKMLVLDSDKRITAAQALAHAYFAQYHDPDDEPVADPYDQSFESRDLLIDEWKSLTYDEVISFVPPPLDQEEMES
T7 sequence (Q9H3Y6 whole entry, species assumed): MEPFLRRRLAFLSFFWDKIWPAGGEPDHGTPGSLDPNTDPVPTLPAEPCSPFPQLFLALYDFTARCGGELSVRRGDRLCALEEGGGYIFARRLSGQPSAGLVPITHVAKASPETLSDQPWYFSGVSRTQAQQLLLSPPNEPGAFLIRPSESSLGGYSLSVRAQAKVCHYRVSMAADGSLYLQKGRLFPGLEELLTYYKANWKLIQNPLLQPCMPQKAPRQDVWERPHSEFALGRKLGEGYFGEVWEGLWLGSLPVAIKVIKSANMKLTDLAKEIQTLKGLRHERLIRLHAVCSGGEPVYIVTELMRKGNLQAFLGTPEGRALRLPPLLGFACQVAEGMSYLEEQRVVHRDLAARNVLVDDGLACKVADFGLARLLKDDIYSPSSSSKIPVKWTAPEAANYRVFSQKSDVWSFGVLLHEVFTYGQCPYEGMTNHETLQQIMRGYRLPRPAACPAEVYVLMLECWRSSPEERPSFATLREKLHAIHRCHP

| SMILES | inhibition at 1 µM (ALK) | inhibition at 1 µM (MAPK14/P38A) | inhibition at 1 µM (FLT4) | inhibition at 1 µM (EPHA3) | inhibition at 1 µM (DYRK1B) | inhibition at 1 µM (MAP4K4/HGK) | inhibition at 1 µM (TBK1) | inhibition at 1 µM (SRMS) | inhibition at 1 µM (MAPK12/P38G) |
| --- | --- | --- | --- | --- | --- | --- | --- | --- | --- |
| C=CC(=O)N1CCCC(c2c(F)cc(C(N)=O)c3[nH]c4c(c23)CCCCC4)C1 (single isomer, unassigned) [Compound 5-6] | -26.4% | -8.3% | 19.7% | 0.7% | 16.1% | -22.7% | 10.9% | -10% | -1.9% |
| C=CC(=O)N1CCC[C@@H](c2c(F)cc(C(N)=O)c3[nH]c4c(c23)CC2(CC4)CC2)C1 [Compound 6-2, (S)-5-(1-acryloylpiperidin-3-yl)-6-fluoro-1,2,4,9-tetrahydrospiro[carbazole-3,1′-cyclopropane]-8-carboxamide] | 11.7% | 28.2% | 20.4% | 10.1% | -0.2% | 2.9% | -34.6% | -35.5% | 31.3% |
| C=CC(=O)N1CCC[C@@H](c2c(F)cc(C(N)=O)c3[nH]c4c(c23)CCC4)C1 [Compound 10-2, (S)-8-(1-acryloylpiperidin-3-yl)-7-fluoro-1,2,3,4-tetrahydrocyclo-penta[b]indole-5-carboxamide] | -2.7% | 5% | 1.8% | 1.6% | 6.6% | -10.5% | -31.3% | -32% | 4.2% |
